Experiment [1] deals with Staphylococcus aureus. The experiment can be described thus: In vitro minimum inhibitory concentration (MIC) vs. Staph. aureus. Type of experiment: cell-based. The conditions noted are these: Staphylococcus aureus; Table III; two-fold serial dilution, Brain-Heart Infusion broth, overnight; read-out: MIC vs. Staph. aureus. Here is the method:
The antibacterial penam compounds of the instant invention show activity against a wide variety of gram-positive and gram-negative bacteria. […] The broth is inoculated with the bacterial culture, and with the test antibiotic, and then it is incubated overnight. On the next day, the test is read visually. The minimum inhibitory concentration (MIC) is the lowest concentration of antibiotic which prevents turbidity, i.e., which prevents growth of the microorganism. In vitro activities of several of the penam compounds of the invention are presented later in this specification.
In Table II, the minimum inhibitory concentrations (MIC's) of compounds of formula I, wherein R^2 is hydrogen, against a strain of Streptococcus pyogenes, are reported; and in Table III, minimum inhibitory concentrations of compounds of formula I, wherein R^2 is hydrogen, against a strain of Staphylococcus aureus, are presented. Because of the tautomeric nature of such tetrazole derivatives, referred to hereinbefore,each of the preparations tested also contains some of the corresponding compound of formula II, wherein R^3 is hydrogen.

Experiment [2] deals with Staphylococcus aureus. Description: In vivo protection of mice against systemic infection by Staphylococcus aureus. The settings on record: multiple dosing. Here is the method: (§1) The antibacterial penam compounds of the instant invention are also active in vivo. In determining such activity, the test antibiotic is administered to infected mice, using a multiple dosing regimen. The severity of the infection varies from about one to about ten times that needed to kill 100% of the mice under the conditions of the test. At the end of the test, the activity of a compound is assessed by counting the number of survivors among the treated animals. Both the subcutaneous (SC) and the oral (PO) dosage routes are used. Results are given in Table I for two of the compounds of the invention. The ability of the compounds to protect mice against systemic infections caused by a lethal intraperitoneal inoculum of Staphylococcus aureus or of Escherichia coli is presented.

The subject of experiment [3] is Escherichia coli. Description: In vivo protection of mice against systemic infection by Escherichia coli. The conditions noted are these: multiple dosing. Here is the method:
as §1

The test system of experiment [4] is Streptococcus pyogenes. Description: In vitro minimum inhibitory concentration (MIC) vs. Strep. pyogenes. The conditions noted are these: Streptococcus pyogenes; Table II; two-fold serial dilution, Brain-Heart Infusion broth, overnight; read-out: MIC vs. Strep. pyogenes. The format is cell-based. The gist of the method:
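Broth inoculated with bacteria and test antibiotic, incubated overnight and read visually; MIC is the lowest concentration preventing turbidity. Test preparations also contain some of the corresponding tetrazole tautomer.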

Where only a bound is given, the exact number is not on record here.

As a reminder, the MIC is the smallest concentration in the dilution series that meets the test's criterion for growth inhibition.

As for `CC1(C)S[C@@H]2[C@H](NC(=O)[C@H](N)c3ccsc3)C(=O)N2[C@H]1c1nnn[nH]1` [D-2-amino-2-(3-thienyl)acetyl, 6-(D-2-Amino-2-[3-thienyl]acetamido)-2,2-dimethyl-3-(5-tetrazolyl)penam], the MIC in experiment [1] is below 0.1 µg/mL. Also, the “Percentage Protection S. aureus” value in experiment [2] (6 mg./kg. SC) is 50%; in experiment [2] (12 mg./kg. SC) it was 50%; in experiment [2] (25 mg./kg. SC) it was 60%; in experiment [2] (50 mg./kg. SC), 40%. The “Percentage Protection E. coli” value came to 20% in experiment [3] (25 mg./kg. SC), 20% in experiment [3] (50 mg./kg. SC) and 0% in experiment [3] (200 mg./kg. PO).
Regarding `CC1(C)S[C@@H]2[C@H](NC(=O)[C@H](N)c3ccc(O)cc3)C(=O)N2[C@H]1c1nnn[nH]1` [D-2-amino-2-(p-hydroxyphenyl)acetyl, 6-(D-2-Amino-2-[4-hydroxyphenyl]acetamido)-2,2-dimethyl-3-(5-tetrazolyl)penam], the minimum inhibitory concentration (MIC) in experiment [4] is below 0.1 µg/mL. Further, the “Percentage Protection S. aureus” value in experiment [2] (6 mg./kg. SC) is on record as 50%; in experiment [2] (12 mg./kg. SC) it was 50%; in experiment [2] (25 mg./kg. SC) it was 70%; in experiment [2] (50 mg./kg. SC), 80%. The “Percentage Protection E. coli” value is 80% in experiment [3] (25 mg./kg. SC), 100% in experiment [3] (50 mg./kg. SC) and 100% in experiment [3] (200 mg./kg. PO).
